Reference: patent US8404679B2, “Pyrrolidine derivatives as NK2 receptor antagonists” (Hoffmann-La Roche Inc., priority 2008, dated 2013)

The compounds below were run against T1, human NK2 receptor (Homo sapiens, UniProt P21452) (assay: [3H]SR48968 competition binding assay). Details: [3H]SR48968 displacement, membranes of CHO cells stably expressing recombinant human NK2 receptor; Ki from IC50 by Cheng-Prussoff.
T1 construct: purchased Perkin Elmer biosignal Inc. 6110510
T1 sequence (P21452 1-398): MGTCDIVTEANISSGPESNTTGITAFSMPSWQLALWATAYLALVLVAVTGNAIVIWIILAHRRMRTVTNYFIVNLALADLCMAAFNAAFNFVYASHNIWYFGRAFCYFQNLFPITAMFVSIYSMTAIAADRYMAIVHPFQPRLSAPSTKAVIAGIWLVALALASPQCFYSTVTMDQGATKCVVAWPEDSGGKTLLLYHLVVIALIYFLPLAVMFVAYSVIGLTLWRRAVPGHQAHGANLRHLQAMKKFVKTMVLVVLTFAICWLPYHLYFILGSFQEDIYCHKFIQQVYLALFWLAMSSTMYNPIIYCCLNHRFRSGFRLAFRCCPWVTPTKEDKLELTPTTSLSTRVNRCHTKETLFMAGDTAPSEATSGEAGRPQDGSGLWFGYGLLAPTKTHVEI
Method: [^3H]SR48968 Competition Binding Assay
hNK2 receptor binding experiment were performed using [^3H]SR48968 (Catalog No. TRK398, specific activity: 27.0 Ci/mmol, Amersham, GE Healthcare UK limited, Buckinghamshire, UK) and membrane isolated from CHO cells stably expressing recombinant human NK2 receptor (product No. 6110510, Perkin Elmer biosignal Inc., Shelton, Conn., USA). After thawing, the membrane homogenates were centrifuged at 48,000×g for 10 min at 4° C., the pellets were resuspended in the 50 mM Tris-HCl, 3 mM MnCl2, 4 μg/mL Chymostatin, 0.04% BSA binding buffer at pH 7.4 to a final assay concentration of 6.5 μg protein/well. For inhibition experiments, membranes were incubated with [^3H]SR48968 at a concentration equal to KD value of radioligand and 10 concentrations of the inhibitory compound (0.0003-10 μM) (in a total reaction volume of 500 μl) for 75 min at room temperature (RT). At the end of the incubation, membranes were filtered onto unitfilter (96-well white microplate with bonded GF/C filter preincubated 1 h in 0.3% polyethylenimine, Packard BioScience, Meriden, Conn.) with a Filtermate 196 harvester (Packard BioScience) and washed 4 times with ice-cold 50 mM Tris-HCl, pH 7.4 buffer. Nonspecific binding was measured in the presence of 10 μM 1-{2-[(R)-3-(3,4-dichloro-phenyl)-1-(3,4,5-trimethoxy-benzoyl)-pyrrolidin-3-yl]-ethyl}-4-phenyl-piperidine-4-carboxylic acid amide. The radioactivity on the filter was counted (5 min) on a Packard Top-count microplate scintillation counter with quenching correction after addition of 45 μl of microscint 40 (Canberra Packard S. A., Zürich, Switzerland) and shaking for 1 h. Inhibition curves were fitted according to the Hill equation: y=100/(1+(x/IC50)^nH), where nH=slope factor using Excel-fit 4 software (Microsoft). IC50 values were derived from the inhibition curve and the affinity constant (Ki) values were calculated using the Cheng-Prussoff equation Ki=IC50/(1+[L]/KD) where [L] was the concentration of radioligand and KD was its dissociation constant at the receptor, derived from the saturation isotherm.
CN(C(=O)c1cc(C(F)(F)F)ccc1F)[C@@H]1CN(C(=O)N2CCN(S(C)(=O)=O)CC2)C[C@H]1c1ccc(Cl)c(Cl)c1 (racemic) [Example 38, rac-N-[(3S,4R)-4-(3,4-Dichloro-phenyl)-1-(4-methanesulfonyl-piperazine-1-carbonyl)-pyrrolidin-3-yl]-2-fluoro-N-methyl-5-trifluoromethyl-benzamide] was tested, and the Ki was 9.5 nM.
Work on CCN(C(=O)c1ccc(OC)c(C(F)(F)F)c1)[C@@H]1CN(C(=O)N2CCN(S(C)(=O)=O)CC2)C[C@H]1c1ccc(Cl)c(Cl)c1 (racemic) [Example 39, rac-N-[(3S,4R)-4-(3,4-Dichloro-phenyl)-1-(4-methanesulfonyl-piperazine-1-carbonyl)-pyrrolidin-3-yl]-N-ethyl-4-methoxy-3-trifluoromethyl-benzamide] yielded a Ki of 68.3 nM.
In the case of COc1ccc(C(=O)N(C)[C@@H]2CN(C(=O)c3ccc(C#N)cc3)C[C@H]2c2ccc(Cl)c(Cl)c2)cc1C(F)(F)F (racemic) [Example 41, rac-N-[(3S,4R)-1-(4-Cyano-benzoyl)-4-(3,4-dichloro-phenyl)-pyrrolidin-3-yl]-4-methoxy-N-methyl-3-trifluoromethyl-benzamide], the Ki is reported as 1.45 nM.
Work on COc1ccc(C(=O)N2C[C@@H](N(C)C(=O)c3ccc(OC)c(C(F)(F)F)c3)[C@H](c3ccc(Cl)c(Cl)c3)C2)cc1 (racemic) [Example 44, rac-N-[(3S,4R)-4-(3,4-Dichloro-phenyl)-1-(4-methoxy-benzoyl)-pyrrolidin-3-yl]-4-methoxy-N-methyl-3-trifluoromethyl-benzamide] yielded a Ki of 4.24 nM.
Work on COc1ccc(C(=O)N(C)[C@@H]2CN(C(=O)c3ccc(N(C)C)cc3)C[C@H]2c2ccc(Cl)c(Cl)c2)cc1C(F)(F)F (racemic) [Example 45, rac-N-[(3S,4R)-4-(3,4-Dichloro-phenyl)-1-(4-dimethylamino-benzoyl)-pyrrolidin-3-yl]-4-methoxy-N-methyl-3-trifluoromethyl-benzamide] yielded a Ki of 2.98 nM.
COc1ccc(C(=O)N(C)[C@@H]2CN(C(=O)c3ccc(F)cc3)C[C@H]2c2ccc(Cl)c(Cl)c2)cc1C(F)(F)F (racemic) [Example 46, rac-N-[(3S,4R)-4-(3,4-Dichloro-phenyl)-1-(4-fluoro-benzoyl)-pyrrolidin-3-yl]-4-methoxy-N-methyl-3-trifluoromethyl-benzamide] gave a Ki of 3.26 nM.
COc1ccc(C(=O)N(C)[C@@H]2CN(C(=O)c3cccc(C#N)c3)C[C@H]2c2ccc(Cl)c(Cl)c2)cc1C(F)(F)F (racemic) [Example 47, rac-N-[(3S,4R)-1-(3-Cyano-benzoyl)-4-(3,4-dichloro-phenyl)-pyrrolidin-3-yl]-4-methoxy-N-methyl-3-trifluoromethyl-benzamide] gave a Ki of 3.65 nM.
For COc1ccc(C(=O)N(C)[C@@H]2CN(C(=O)c3ccc4occc4c3)C[C@H]2c2ccc(Cl)c(Cl)c2)cc1C(F)(F)F (racemic) [Example 48, rac-N-[(3S,4R)-1-(Benzofuran-5-carbonyl)-4-(3,4-dichloro-phenyl)-pyrrolidin-3-yl]-4-methoxy-N-methyl-3-trifluoromethyl-benzamide], the Ki was 5.36 nM.
Compound COc1ccc(C(=O)N(C)[C@@H]2CN(C(=O)c3cc(S(C)(=O)=O)ccc3F)C[C@H]2c2ccc(Cl)c(Cl)c2)cc1C(F)(F)F (racemic) [Example 49, rac-N-[(3S,4R)-4-(3,4-Dichloro-phenyl)-1-(2-fluoro-5-methanesulfonyl-benzoyl)-pyrrolidin-3-yl]-4-methoxy-N-methyl-3-trifluoromethyl-benzamide] has a Ki of 2.53 nM.
COc1ccc(C(=O)N(C)[C@@H]2CN(C(=O)c3ccc(C(F)(F)F)cc3)C[C@H]2c2ccc(Cl)c(Cl)c2)cc1C(F)(F)F (racemic) [Example 50, rac-N-[(3S,4R)-4-(3,4-Dichloro-phenyl)-1-(4-trifluoromethyl-benzoyl)-pyrrolidin-3-yl]-4-methoxy-N-methyl-3-trifluoromethyl-benzamide] showed a Ki of 6.3 nM.
